From publication PMC9784874, “Inhibitors of HIV-1 and Cathepsin L Proteases Identified from the Insect Gall of Hypericum kouytchense” (Pharmaceuticals, 2022)
Like-named read-outs stand apart in the source and are kept apart here.

Experiments:
[1] = system: HIV replication in H9 lymphocytes; parameters: method as in PMID 15987189; details: cited from earlier work
HIV-1 PR = biological target: T1, HIV-1 PR (Human immunodeficiency virus type 1 group M subtype B, UniProt P04585); assay: Fluorimetric HIV-1 protease inhibition assay; format: biochemical
T1 construct: 10.0, 4.0, 3.2 and 17.0 µg/mL against HIV-1 protease
Procedure: (§1) The inhibitory activities against HIV-1, Cat L and Renin PRs were assayed by fluorimetric methods using our previously published protocols.

Cat L PR = Cat L PR (Homo sapiens, UniProt P07711); assay: Fluorimetric cathepsin L protease inhibition assay; format: biochemical; details: read-out: Cat L PR Inhi% at 100.0 µg/mL
Procedure: as §1

human renin = biological target: T2, human renin (Homo sapiens, UniProt P00797); assay: Fluorimetric renin protease inhibition assay; format: biochemical; details: extracts, n = 3
T2 sequence (P00797 67-406): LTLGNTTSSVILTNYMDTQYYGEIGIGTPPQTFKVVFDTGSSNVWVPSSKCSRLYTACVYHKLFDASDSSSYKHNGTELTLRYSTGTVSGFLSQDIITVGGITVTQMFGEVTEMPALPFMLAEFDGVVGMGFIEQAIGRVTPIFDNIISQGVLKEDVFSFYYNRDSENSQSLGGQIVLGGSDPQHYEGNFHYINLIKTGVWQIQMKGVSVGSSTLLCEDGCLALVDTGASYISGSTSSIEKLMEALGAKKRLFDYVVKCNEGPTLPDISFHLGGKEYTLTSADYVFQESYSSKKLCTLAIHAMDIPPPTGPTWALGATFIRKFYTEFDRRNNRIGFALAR
Procedure: as §1

[2] = active compounds, n = 3, read-out: HIV-1 PR IC50 (converted)

Sequence of Cat L PR (P07711 114-333): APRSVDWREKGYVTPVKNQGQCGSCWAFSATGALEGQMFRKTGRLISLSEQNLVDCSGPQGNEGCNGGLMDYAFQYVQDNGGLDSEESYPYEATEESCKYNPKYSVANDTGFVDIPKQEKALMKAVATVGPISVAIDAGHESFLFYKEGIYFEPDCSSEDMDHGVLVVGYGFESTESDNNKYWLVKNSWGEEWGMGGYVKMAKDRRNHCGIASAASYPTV

IC50 Renin PR (human renin) | Molecule | therapeutic index (TI) [1] | HIV-1 PR Inhi% at 1000.0 µg/mL (HIV-1 PR; n = 3) | IC50 (HIV-1 PR; [2]) | inhibition at 100 µg/mL (Cat L PR; 100.0 µg/mL, n = 3) | IC50 (HIV-1 PR) | inhibition at 100 µg/mL (Cat L PR)
 | C=C[C@@]1(C)COC(=O)[C@]12O[C@]1(c3ccccc3)[C@H](C2=O)[C@H]2[C@H]([C@H](C)CCC=C(C)C)CC=C(C)[C@H]21 [Biyouyanagin A] | higher than 31.3 |  |  |  |  | 
 | Oc1cc(O)c2c(c1)O[C@H](c1ccc(O)c(O)c1)[C@H](O)C2 [Epicatechin] |  | 66.0 ± 3.79% | 2760 µM | -17.7 ± 2.35% |  | 
 | O=C1C[C@@H](c2ccc(O)c(O)c2)Oc2cc(O)cc(O)c21 [Eriodictyol, Eriodicytiol] |  | 100.0 ± 4.98% |  | 14.3 ± 2.32% | 659 µM | 
 | Cc1cc(O)c2c(=O)c3c(O)cc(O)c4c5c(O)cc(O)c6c(=O)c7c(O)cc(C)c8c1c2c(c34)c(c78)c65 [Hypericin] |  | 100.0 ± 7.87% |  | 79.4 ± 2.02% | 3.57 µM | 
 | O=c1c(O[C@@H]2O[C@H](CO)[C@H](O)[C@H](O)[C@H]2O)c(-c2ccc(O)c(O)c2)oc2cc(O)cc(O)c12 [Hyperoside] |  | 72.6 ± 1.40% |  | 11.8 ± 2.56% | 84 µM | 
 | O=C(/C=C/c1ccc(O)cc1)c1c(O)cc(O)cc1O [Naringenin chalcone] |  | 100.0 ± 1.96% | 121 µM | 22.2 ± 6.77% |  | 
 | O=c1c(O)c(-c2ccc(O)c(O)c2)oc2cc(O)cc(O)c12 [Quercetin] |  | 50.3 ± 1.40% |  | -3.67 ± 6.59% |  | 
 | C[C@@H]1O[C@@H](Oc2c(-c3ccc(O)c(O)c3)oc3cc(O)cc(O)c3c2=O)[C@H](O)[C@H](O)[C@H]1O [Quercitrin] |  | 94.4 ± 7.86% | 44.6 µM |  |  | 16.3 ± 3.24%
 | C[C@@H]1O[C@@H](OC[C@H]2O[C@@H](Oc3c(-c4ccc(O)c(O)c4)oc4cc(O)cc(O)c4c3=O)[C@H](O)[C@@H](O)[C@@H]2O)[C@H](O)[C@H](O)[C@H]1O [Rutin] |  | 24.8 ± 3.85% |  | -4.81 ± 3.8% |  | 
 | C[C@@H]1O[C@@H](Oc2cc(O)c3c(c2)O[C@H](c2ccc(O)c(O)c2)[C@@H](O)C3=O)[C@H](O)[C@H](O)[C@H]1O [Taxifolin-7-O-rhamnoside] |  | 68.4 ± 5.45% | 1220 µM | 18.1 ± 0.95% |  | 
0.9 µg/mL | Ac–HPFV–(Sta)–LF–NH2 [Renin inhibitor] |  |  |  |  |  | 
